Entries after “also recorded” stand apart in the source; their conditions may differ.
Experiments:
[1] = system: cells in tissue culture; details: Purdie 1979; cited from earlier work
[2] = system: cell cycle; details: Jeitner and Renton 1996; Snyder and Grdina 2000; Kramer et al. 1997; cited from earlier work
[3] = system: primary, human skin fibroblasts; test: Cell cycle block in human skin fibroblasts (flow cytometry); type: cell-based; details: for cell cycle block (phase): log-phase human fibroblast cultures; for reversibility of cell cycle block: upon washout or removal of the drug
Protocol: (§1) Methods (Cell cycle and p21 western): The cell culture experiments were done using primary, human skin fibroblasts, one strain of which (BJ cells) was obtained from ATCC (American Type Culture Collection). […] For flow cytometry and p21 experiments, cells were plated at 0.5×10^6 cells/150 mm plate, and 24 hr later, drug molecules (4100 μM PrC-210, 600 μM cysteamine, 205 μM cysteamine analog, 0.4 μg/ml colcemid) were added to medium. […] (Cancer Research. 61(21):7754-62, 2001). As per the cited reference, cells were fixed, treated with RNAse, and stained with propidium iodide for flow cytometry, or cells were extracted, proteins electrophoresed, and probed with anti-p21 antibody (#SXM-30) for western blot analysis.

[4] = system: radiation-induced dermatitis on backs of rats; test: Radiation-induced dermatitis in rat skin model; type: in vivo; details: for protective effect against radiation-induced dermatitis (FIG. 8D): topical in carrier vehicle before 5.5 min Cs137 irradiation
Protocol: To determine efficacy of chemoprotective polyamines in preventing radiation-induced dermatitis, adult rats were topically treated with the compounds before and after radiation treatment. Rats were exposed to medically relevant levels of radiation that could induce clinical radiation dermatitis. Sprague Dawley rats (Harlan Spraque Dawley) at 4-6 weeks-old were anesthetized with sodium pentobarbital at 40 mg/kg body weight (Sigma, St. Louis, Mo.) prior to radiation exposure. A defined area (1.5×2 cm) on the backs of rats was irradiated using a Mark I, Model 30, Cs 137 irradiator (J. L. Sheppard & Associates). Before topical drug treatment or irradiation, the backs of the rats were clipped using an Oster clipper at the closest setting. The rest of the body was protected from radiation exposure using a lead shield (2.5 cm thick). A dose response study was initially performed to reproduce relevant dermatitis that matched the Grade (I-IV) scale used to score the severity of radiation-induced dermatitis in humans. The severity of the dermatitis was scored 12-13 days post-irradiation at the peak of the dermal inflammation. […] Radiation dermatitis of Grade II-III was considered most clinically relevant, so a radiation dose of 8.7 Gy was typically used in the rats. The clipped back region on the rats was treated topically with aminothiol in delivery vehicle four times in the two hours immediately preceding irradiation (at −2 hr, −1 hr, −30 min, and −10 min; irradiation was at 0 min
The polyamines or amino thiols were prepared in a delivery vehicle, consisting of ethanol:propylene glycol:water, ranging from 0:95:5 to 50:30:20 depending upon the solubility characteristics of the topical molecule, and the degree of dermal penetration desired. A vehicle composed of an emulsion formed by sonication of ‘nonionic liposomes’ and isopropyl myristate was also used (Jayaraman, S. et al., J. Pharm. Sci. 85:1082-1084, 1996). In a commonly used protocol, 220 μl of topical drug/vehicle was applied to an area ˜2 cm×3 cm on the back in the 2 hr just prior to irradiation. Rats treated with only the delivery vehicle served as controls. Twelve to thirteen days post-radiation, the rats were evaluated for dermatitis within the irradiated area. In early studies, a modified scoring scale described by Masuda K. et al., Int. J. Radiation Oncol. Biol. Phys: 12, 1645 (1986) was used, and in later studies, including those described here, a simplified scoring system was used in which the percentage of the irradiated, rectangular field covered with scrab material was estimated between 0 and 100% to provide scores on a scale between 0 and 100.
This example relates to the use of a rat skin model to evaluate the efficacy of two amino thiol compounds in preventing radiation-induced dermatitis. To test whether topically-applied aminothiols could prevent the radiodermatitis caused by external beam radiotherapy, the rodent model described in Example 3 was slightly modified. Briefly, the radiodermatitis model involved: • i) shaving the backs of 6-7 week old rats or mice; • ii) applying four topical doses of aminothiol in a delivery vehicle composed of ethanol:propylene glycol (PG):water in the 2 hr prior to irradiation; • iii) irradiating a small, 3 cm^2 (1.5×2 cm) area on the animal's back (through a window in a lead plate) with 8.7 Gy of γ radiation from a Cs^137 source; and • iv) scoring the severity of the dermatitis 12-13 days later, at the peak of the inflammatory skin reaction. Radiodermatitis severity was scored by estimating the percentage of the irradiated field that was covered by scrab material.
Methods: Treatments were applied as described in Example 6.

[5] = system: 23SK human skin cells; test: Protection of human skin cells against phosphoramide mustard; type: cell-based; details: 4 mM preload 30 min, phosphoramide mustard 40 min
Protocol: An in vitro cell culture assay was developed to determine the ability of chemoprotective polyamines, chemoprotective amino thiols and other molecules to confer radioprotection or chemoprotection to human skin cells. Diploid, human foreskin fibroblasts (23SK cells) were maintained in DMEM supplemented with 20% fetal bovine serum and gentamycin. For toxicity experiments, cells were seeded at a density of 750 cells/100 μl of DMEM+20% FBS+gentamycin into each well of 96 well plates (Corning, Corning, N.Y.). The next day, solutions of protective drug molecules, typically at 4 mM concentration, were prepared in Dulbecco's phosphate-buffered saline (D-PBS); each stock was titrated back to pH 7.0-7.5, if necessary, using sterile HCl or NaOH. Media was aspirated from cell wells, wells were rinsed with D-PBS, and loading solutions were then added to wells. Cells were typically exposed to loading solutions for 30 min. Following this drug loading period, plates were either placed directly into a Shepherd Mark II Cs^137 irradiator for irradiation (38 min), or wells were aspirated and the solution immediately replaced with a solution of D-PBS containing 350 μM phosphoramide mustard (obtained from NCI Chemical Repository) for a 40 min incubation at room temperature. After either treatment, wells were aspirated, rinsed and then given 100 μl of DMEM+20% FBS+gentamycin. Plates were maintained in 5% CO2 within a humidified chamber within a humidified incubator for 4-5 days at 37° C. […] of MTT solution (Promega Corp., Madison, Wis.) was then added to each well, and color development occurred over the next 3 hr at 37° C. Absorbance at 490 nm was then determined using a plate reader, and cell growth in treated wells compared to cell growth in wells loaded with vehicle and not irradiated or exposed to phosphoramide mustard was plotted using GraphPad software.

[6] = system: mouse skin; details: cited from earlier work
[7] = system: p21 in human fibroblasts; test: p21 western blot in human skin fibroblasts; type: cell-based; details: IC70 concentration of PrC-210 (4100 μM); cysteamine 600 μM; 30 hour exposure
Protocol: as §1

[8] = system: Phase I/Phase II/Phase III drug metabolizing/exporting gene products in neonate rat skin; test: Nucleic acid arrays of topically treated neonate rat skin; type: in vivo; details: topical treatment of neonate rat skin for 3-6 days
Excerpt: Two examples of genes whose expression was induced following topical β-naphthaflavone treatment included, glutathione S-transferase (several separate isoforms that conjugate/detoxify drug electrophiles), and MRP (mdr-related protein, drug exporting membrane pump).

SMILES	radioprotector activity when added to cells in tissue culture [1]	cell cycle arrest reported in literature [2]	cell cycle block (phase) [3]	reversibility of cell cycle block [3]	protective effect against radiation-induced dermatitis (FIG. 8D) [4]	protective effect on cell growth against phosphoramide mustard (FIG. 8B) [5]	effect of systemic drug on radiation-induced skin damage ([6]; systemic, mice, Lowy et al. 1972)	protective effect when applied topically to mouse skin ([6]; topical, Verhey et al. 1983)	effect of topical application on radiation-induced skin damage ([6]; topical, mice, Lowy et al. 1972)	effect on radiation dermatitis ([4]; 600-1200 mM applied to backs of rats two hours prior to radiation)	p21 expression [7]	number of Phase I/Phase II/Phase III drug metabolizing/exporting gene products activated [8]
NCCCNCCS [WR-1065]	active as a radioprotector	arresting cells in the G2 phase	cell cycle block in G2; also recorded: G2 cell cycle block that could not be reversed	not reversible	lack of a protective effect	not significantly different than that seen in the vehicle control						
NCCCNCCSP(=O)(O)O [amifostine]		arresting cells in the G2 phase	G2 cell cycle block that could not be reversed		lack of a protective effect	not significantly different than that seen in the vehicle control	effective in reducing radiation-induced skin damage	no protective effect	showed no protective effect			
NCCS [cysteamine]	active as a radioprotector	arrest in G2/M	cell cycle block in G2; also recorded: G2 cell cycle block that could not be reversed	not reversible		conferred a protective effect				eliminate radiation dermatitis	does not induce such expression	
O=c1cc(-c2ccccc2)oc2ccc3ccccc3c12 [β-naphthaflavone]												at least 40

Reference: patent US7314959B2, “Amino thiol compounds and compositions for use in conjunction with cancer therapy” (Wisconsin Alumni Research Foundation, priority 2003, dated 2008)
